Measured values reported in ChEMBL document CHEMBL6121003, “Design, synthesis, and pharmacological evaluation of triazine-based PI3K/mTOR inhibitors for the potential treatment of non-small cell lung cancer” (Eur J Med Chem, 2025).

Tests used:
[1] = molecular target: Phosphatidylinositol 4,5-bisphosphate 3-kinase catalytic subunit alpha isoform (Homo sapiens, UniProt P42336)
Description: Inhibition of PI3Kalpha (unknown origin) using PIP2 as substrate measured after 1 hr in presence of ATP by ADP-glo luminescence assay

HCC827 = experiment: Antiproliferative activity against human HCC827 cells measured after 48 hrs by MTT assay; format: functional, cell-based; details: HCC827, 48 h
PC-9 = experiment: Antiproliferative activity against human PC-9 cells measured after 48 hrs by MTT assay; format: functional, cell-based; details: PC-9, 48 h
[2] = molecular target: Phosphatidylinositol 4,5-bisphosphate 3-kinase catalytic subunit gamma isoform (Homo sapiens, UniProt P48736); experiment: Inhibition of PI3K gamma (unknown origin) using PIP2 as substrate measured after 1 hr in presence of ATP by ADP-glo luminescence assay
[3] = molecular target: Serine/threonine-protein kinase mTOR (Homo sapiens, UniProt P42345); experiment: Inhibition of mTOR (unknown origin) using ULight-4E-BP1 as substrate measured after 45 mins in presence of ATP by Lance ultra assay
[4] = molecular target: Phosphatidylinositol 4,5-bisphosphate 3-kinase catalytic subunit beta isoform (Homo sapiens, UniProt P42338); experiment: Inhibition of PI3Kbeta (unknown origin) using PIP2 as substrate measured after 1 hr in presence of ATP by ADP-glo luminescence assay
[5] = molecular target: T1, Phosphatidylinositol 4,5-bisphosphate 3-kinase catalytic subunit delta isoform (Homo sapiens, UniProt O00329); experiment: Inhibition of PI3K delta (unknown origin) using PIP2 as substrate measured after 1 hr in presence of ATP by ADP-glo luminescence assay
T1 sequence (O00329 whole entry): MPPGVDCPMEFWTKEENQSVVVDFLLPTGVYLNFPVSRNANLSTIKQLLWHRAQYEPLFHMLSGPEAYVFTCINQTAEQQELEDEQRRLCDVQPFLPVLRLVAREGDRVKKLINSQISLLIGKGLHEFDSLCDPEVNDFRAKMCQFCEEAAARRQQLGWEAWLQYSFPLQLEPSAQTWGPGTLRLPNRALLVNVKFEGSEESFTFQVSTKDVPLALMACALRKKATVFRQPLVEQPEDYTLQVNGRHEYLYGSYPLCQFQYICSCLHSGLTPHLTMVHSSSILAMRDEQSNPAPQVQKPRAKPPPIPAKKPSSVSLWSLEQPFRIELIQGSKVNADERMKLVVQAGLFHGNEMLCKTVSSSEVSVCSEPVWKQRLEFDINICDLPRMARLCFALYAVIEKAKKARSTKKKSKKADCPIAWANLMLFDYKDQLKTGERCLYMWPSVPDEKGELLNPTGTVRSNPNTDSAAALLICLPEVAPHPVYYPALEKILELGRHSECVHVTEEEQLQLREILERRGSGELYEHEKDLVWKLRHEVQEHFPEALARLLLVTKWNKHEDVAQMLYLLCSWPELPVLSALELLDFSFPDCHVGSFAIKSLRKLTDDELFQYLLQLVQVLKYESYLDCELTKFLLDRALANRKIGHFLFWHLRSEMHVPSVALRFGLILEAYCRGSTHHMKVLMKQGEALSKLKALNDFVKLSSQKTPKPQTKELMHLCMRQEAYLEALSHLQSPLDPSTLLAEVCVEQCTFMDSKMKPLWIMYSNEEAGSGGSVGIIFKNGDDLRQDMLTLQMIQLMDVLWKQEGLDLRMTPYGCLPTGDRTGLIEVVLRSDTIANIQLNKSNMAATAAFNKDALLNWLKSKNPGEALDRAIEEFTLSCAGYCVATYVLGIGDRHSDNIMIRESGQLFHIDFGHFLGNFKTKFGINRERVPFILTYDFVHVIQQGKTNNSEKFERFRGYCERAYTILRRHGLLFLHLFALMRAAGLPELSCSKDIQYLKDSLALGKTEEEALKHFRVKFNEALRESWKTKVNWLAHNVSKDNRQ

CYP2C9 = CYP2C9 (Homo sapiens, UniProt P11712); experiment: Inhibition of CYP2C9 (unknown origin) at 10 uM relative to control; format: ADME
CYP1A2 = molecular target: T2, CYP1A2 (Homo sapiens, UniProt P05177); experiment: Inhibition of CYP1A2 (unknown origin) at 10 uM relative to control; format: ADME
T2 sequence (P05177 whole entry): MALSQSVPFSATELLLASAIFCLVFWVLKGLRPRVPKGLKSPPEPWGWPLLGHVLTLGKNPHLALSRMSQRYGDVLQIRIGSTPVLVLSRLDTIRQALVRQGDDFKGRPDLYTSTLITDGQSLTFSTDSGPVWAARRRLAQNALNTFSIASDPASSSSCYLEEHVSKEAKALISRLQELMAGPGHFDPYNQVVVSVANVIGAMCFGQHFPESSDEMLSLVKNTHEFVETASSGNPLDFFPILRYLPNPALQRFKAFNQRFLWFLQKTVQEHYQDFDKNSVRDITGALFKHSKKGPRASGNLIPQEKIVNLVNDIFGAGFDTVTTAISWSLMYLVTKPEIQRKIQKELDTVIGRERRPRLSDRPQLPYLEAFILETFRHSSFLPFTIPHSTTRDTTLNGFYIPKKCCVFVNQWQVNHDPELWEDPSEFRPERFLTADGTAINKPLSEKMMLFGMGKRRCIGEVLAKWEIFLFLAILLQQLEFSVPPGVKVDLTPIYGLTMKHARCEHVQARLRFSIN

CYP2D6 = CYP2D6 (Homo sapiens, UniProt P10635); experiment: Inhibition of CYP2D6 (unknown origin) at 10 uM relative to control; format: ADME
CYP3A4 = CYP3A4 (Homo sapiens, UniProt P08684); experiment: Inhibition of CYP3A4 (unknown origin) at 10 uM relative to control; format: ADME
hERG (KCNH2) = hERG (KCNH2) (Homo sapiens, UniProt Q12809); experiment: Inhibition of human ERG at 20 uM relative to control; format: toxicity
[6] = Toxicity in nude male Balb/c mouse assessed as effect on body weight at 20 mg/kg, po administered daily for 2 weeks; format: organism-based; details: in vivo, 336 h
[7] = Toxicity in 8 hrs fasted ICR mouse assessed as effect on blood glucose level at 20 mg/kg, iv measured upto 240 mins by glucometer analysis; format: organism-based; details: in vivo, 4 h

Phosphatidylinositol 4,5-bisphosphate 3-kinase catalytic subunit alpha isoform, sequence (P42336 whole entry, canonical isoform): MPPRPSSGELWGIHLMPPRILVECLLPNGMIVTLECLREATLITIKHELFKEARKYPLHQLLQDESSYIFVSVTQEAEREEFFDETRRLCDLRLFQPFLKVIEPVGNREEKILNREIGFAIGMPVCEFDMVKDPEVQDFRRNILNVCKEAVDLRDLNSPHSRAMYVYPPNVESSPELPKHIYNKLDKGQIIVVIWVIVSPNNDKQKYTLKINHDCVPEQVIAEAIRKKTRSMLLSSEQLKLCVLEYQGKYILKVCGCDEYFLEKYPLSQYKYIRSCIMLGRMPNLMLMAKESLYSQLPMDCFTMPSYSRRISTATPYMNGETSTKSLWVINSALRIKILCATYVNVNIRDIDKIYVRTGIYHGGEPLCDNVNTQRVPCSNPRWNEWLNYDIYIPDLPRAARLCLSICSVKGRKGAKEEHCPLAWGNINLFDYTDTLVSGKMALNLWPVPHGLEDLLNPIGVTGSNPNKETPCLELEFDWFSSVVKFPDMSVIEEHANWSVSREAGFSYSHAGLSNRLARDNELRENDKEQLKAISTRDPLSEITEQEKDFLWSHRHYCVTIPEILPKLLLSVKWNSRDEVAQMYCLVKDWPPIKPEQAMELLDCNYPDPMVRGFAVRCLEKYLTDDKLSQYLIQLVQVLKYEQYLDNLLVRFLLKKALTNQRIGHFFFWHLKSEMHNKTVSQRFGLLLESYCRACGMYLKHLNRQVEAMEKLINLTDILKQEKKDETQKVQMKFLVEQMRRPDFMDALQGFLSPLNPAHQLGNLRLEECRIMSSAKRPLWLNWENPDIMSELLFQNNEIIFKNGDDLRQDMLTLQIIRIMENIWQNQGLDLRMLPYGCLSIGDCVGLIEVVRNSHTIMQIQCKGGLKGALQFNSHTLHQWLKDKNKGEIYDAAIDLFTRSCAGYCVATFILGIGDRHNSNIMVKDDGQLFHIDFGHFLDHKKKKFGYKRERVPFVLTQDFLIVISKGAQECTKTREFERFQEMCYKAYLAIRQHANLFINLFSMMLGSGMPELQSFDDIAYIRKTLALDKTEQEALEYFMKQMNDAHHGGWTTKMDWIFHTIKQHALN
Phosphatidylinositol 4,5-bisphosphate 3-kinase catalytic subunit gamma isoform, sequence (P48736 whole entry, canonical isoform): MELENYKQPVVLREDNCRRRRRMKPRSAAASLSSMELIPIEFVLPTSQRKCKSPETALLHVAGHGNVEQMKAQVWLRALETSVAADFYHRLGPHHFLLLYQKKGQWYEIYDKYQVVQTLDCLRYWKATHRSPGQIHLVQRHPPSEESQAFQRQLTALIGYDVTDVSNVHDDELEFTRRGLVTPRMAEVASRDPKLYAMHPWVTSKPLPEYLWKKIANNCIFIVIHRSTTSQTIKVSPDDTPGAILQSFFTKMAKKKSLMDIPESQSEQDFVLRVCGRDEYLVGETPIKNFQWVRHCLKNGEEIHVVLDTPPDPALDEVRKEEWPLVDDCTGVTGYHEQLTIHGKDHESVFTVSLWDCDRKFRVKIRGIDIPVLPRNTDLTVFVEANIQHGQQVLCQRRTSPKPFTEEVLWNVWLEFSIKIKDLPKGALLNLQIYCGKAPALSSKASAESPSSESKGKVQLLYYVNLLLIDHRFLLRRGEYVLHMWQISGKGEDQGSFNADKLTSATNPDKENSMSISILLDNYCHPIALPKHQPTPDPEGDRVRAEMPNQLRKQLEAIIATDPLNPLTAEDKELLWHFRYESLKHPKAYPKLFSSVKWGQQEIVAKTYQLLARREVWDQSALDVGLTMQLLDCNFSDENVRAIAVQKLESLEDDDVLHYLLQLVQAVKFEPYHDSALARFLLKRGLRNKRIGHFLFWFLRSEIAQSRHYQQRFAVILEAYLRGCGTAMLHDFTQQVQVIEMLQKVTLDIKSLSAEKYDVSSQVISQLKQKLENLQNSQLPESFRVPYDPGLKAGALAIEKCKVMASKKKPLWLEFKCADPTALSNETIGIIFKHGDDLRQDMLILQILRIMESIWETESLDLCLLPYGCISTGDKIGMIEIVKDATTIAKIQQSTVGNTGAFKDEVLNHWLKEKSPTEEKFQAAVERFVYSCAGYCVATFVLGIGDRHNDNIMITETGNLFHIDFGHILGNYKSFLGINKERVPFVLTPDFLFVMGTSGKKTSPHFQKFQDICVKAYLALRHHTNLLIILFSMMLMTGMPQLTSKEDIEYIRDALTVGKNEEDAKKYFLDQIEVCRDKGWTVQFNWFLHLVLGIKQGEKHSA
Phosphatidylinositol 4,5-bisphosphate 3-kinase catalytic subunit beta isoform, sequence (P42338 whole entry, canonical isoform): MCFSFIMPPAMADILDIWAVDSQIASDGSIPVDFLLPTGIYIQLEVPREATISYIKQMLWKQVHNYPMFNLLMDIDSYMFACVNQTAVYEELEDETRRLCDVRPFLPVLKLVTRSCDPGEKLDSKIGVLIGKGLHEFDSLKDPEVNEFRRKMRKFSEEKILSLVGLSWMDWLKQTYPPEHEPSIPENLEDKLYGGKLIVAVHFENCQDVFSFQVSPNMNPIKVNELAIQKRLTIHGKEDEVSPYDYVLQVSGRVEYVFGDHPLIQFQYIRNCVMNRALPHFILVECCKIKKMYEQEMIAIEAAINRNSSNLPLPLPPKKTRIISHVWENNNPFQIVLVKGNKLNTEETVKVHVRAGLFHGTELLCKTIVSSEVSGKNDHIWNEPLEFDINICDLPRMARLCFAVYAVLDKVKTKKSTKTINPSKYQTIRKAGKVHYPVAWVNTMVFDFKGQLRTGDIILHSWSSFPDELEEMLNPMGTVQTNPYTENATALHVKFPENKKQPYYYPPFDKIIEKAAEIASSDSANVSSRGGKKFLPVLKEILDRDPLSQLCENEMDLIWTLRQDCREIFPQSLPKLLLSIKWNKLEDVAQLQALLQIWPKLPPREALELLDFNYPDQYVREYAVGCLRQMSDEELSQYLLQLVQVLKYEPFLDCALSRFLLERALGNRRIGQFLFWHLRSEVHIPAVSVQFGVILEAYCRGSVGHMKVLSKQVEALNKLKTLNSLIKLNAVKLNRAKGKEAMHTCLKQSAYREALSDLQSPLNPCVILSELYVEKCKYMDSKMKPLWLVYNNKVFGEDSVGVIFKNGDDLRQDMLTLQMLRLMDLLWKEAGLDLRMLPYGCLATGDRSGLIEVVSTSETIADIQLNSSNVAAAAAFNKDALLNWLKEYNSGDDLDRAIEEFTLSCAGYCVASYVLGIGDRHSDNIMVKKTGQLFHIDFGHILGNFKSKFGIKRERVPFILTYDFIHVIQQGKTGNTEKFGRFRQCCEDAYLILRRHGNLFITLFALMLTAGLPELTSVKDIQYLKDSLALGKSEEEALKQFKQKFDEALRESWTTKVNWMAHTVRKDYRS
CYP2D6, sequence (P10635 whole entry): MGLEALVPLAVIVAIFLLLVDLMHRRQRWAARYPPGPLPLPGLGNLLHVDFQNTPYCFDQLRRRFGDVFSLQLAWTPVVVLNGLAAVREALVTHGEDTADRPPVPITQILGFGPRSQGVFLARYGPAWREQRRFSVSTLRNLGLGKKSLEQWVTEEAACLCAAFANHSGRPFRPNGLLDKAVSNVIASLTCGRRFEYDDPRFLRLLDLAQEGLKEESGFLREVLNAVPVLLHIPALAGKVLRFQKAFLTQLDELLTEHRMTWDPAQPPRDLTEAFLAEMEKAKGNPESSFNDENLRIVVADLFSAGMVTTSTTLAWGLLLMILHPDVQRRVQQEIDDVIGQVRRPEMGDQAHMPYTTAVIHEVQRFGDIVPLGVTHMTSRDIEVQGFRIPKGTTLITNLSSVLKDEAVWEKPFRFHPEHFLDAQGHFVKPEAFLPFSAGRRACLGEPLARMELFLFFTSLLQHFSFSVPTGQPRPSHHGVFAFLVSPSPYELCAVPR
CYP3A4, sequence (P08684 whole entry): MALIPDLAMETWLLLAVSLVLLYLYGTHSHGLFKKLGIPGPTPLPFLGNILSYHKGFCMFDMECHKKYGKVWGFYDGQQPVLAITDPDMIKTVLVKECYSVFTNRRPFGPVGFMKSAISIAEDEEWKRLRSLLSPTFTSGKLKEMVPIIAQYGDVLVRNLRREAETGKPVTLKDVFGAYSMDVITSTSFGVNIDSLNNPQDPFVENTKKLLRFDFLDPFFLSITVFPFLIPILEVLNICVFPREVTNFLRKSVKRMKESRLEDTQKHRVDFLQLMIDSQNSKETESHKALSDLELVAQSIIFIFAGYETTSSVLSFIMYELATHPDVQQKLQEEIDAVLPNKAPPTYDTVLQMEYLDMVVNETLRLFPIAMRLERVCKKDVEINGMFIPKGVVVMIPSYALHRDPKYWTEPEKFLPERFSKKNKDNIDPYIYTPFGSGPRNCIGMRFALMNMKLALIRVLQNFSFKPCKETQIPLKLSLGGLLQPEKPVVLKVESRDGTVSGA
CYP2C9, sequence (P11712 whole entry): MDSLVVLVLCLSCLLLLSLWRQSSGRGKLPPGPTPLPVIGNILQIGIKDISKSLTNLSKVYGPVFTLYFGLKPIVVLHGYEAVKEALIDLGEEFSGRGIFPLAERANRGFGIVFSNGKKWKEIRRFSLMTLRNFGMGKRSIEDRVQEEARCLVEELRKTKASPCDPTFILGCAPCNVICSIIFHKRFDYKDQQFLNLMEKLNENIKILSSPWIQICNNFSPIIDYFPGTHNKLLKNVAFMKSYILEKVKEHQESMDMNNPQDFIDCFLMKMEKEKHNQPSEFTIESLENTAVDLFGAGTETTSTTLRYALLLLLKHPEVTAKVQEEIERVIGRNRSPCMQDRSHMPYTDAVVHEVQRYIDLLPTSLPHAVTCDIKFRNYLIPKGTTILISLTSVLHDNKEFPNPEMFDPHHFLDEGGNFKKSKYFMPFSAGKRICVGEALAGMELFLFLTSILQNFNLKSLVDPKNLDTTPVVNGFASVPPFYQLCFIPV

SMILES | IC50 [1] [nM] | IC50 [2] [nM] | IC50 [3] [nM] | IC50 [4] [nM] | IC50 [5] [nM] | also measured
O=C(c1ccc(NC(=S)Nc2ccc(-c3nc(N4CCOCC4)nc(N4CCOCC4)n3)cc2)cc1)N1CCN(C(=O)C2CCCO2)CC1 (stereo unspecified) | 20.3 |  |  |  |  | IC50 (HCC827): 19800 nM; IC50 (PC-9): 32700 nM
COc1ncc(-c2ccc3nccc(-c4ccnnc4)c3c2)cc1NS(=O)(=O)c1ccc(F)cc1F [OMIPALISIB] |  | 0.86 |  |  |  | 
CN1CCN(C(=O)c2ccc(NC(=S)Nc3ccc(-c4nc(N5CCOCC5)nc(N5CCOCC5)n4)cc3)cc2)CC1 |  | 657 | 127 | 169 | 338 | 
O=C(c1ccc(NC(=S)Nc2ccc(-c3nc(N4CCOCC4)nc(N4CCOCC4)n3)cc2)cc1)N1CCC[C@H]1CO |  | 123 | 24.3 | 35.4 | 106 | 
O=C(Nc1ccc(C(=O)N2CCC[C@@H]2CO)cc1)Nc1ccc(-c2nc(N3CCOCC3)nc(N3CCOCC3)n2)cc1 |  | 32.3 | 4.9 | 42.5 | 34.1 | 
O=C(c1ccc(NC(=S)Nc2ccc(-c3nc(N4CCOCC4)nc(N4CCOCC4)n3)cc2)cc1)N1CCCC(CO)C1 (stereo unspecified) | 36.6 |  |  |  |  | IC50 (HCC827): 1980 nM; IC50 (PC-9): 4320 nM
O=C(Nc1ccc(C(=O)N2CCC[C@H]2CO)cc1)Nc1ccc(-c2nc(N3CCOCC3)nc(N3CCOCC3)n2)cc1 |  | 4.8 | 2.9 | 1.1 | 9.3 | inhibition at 10 µM (CYP2C9): 15%; inhibition at 10 µM (CYP1A2): 10%; inhibition at 10 µM (CYP2D6): 25%; inhibition at 10 µM (CYP3A4): 20%; inhibition at 20 µM (hERG (KCNH2)): 15%
CN(C)C1CCN(C(=O)c2ccc(NC(=O)Nc3ccc(-c4nc(N5CCOCC5)nc(N5CCOCC5)n4)cc3)cc2)CC1 [GEDATOLISIB] |  |  |  |  |  | Activity [6]: Non-toxic; Activity [7]: Toxic
O=C(c1ccc(NC(=S)Nc2ccc(-c3nc(N4CCOCC4)nc(N4CCOCC4)n3)cc2)cc1)N1CCCCC1CO (stereo unspecified) | 70.4 |  |  |  |  | 
